BindingDB's records for doi:10.1021/jm00057a007 (Kyowa Hakko Kogyo, 1993)
Structures can show the parent of a compound that is named as a salt.

Columns and labels:
[1] = Inhibition of guinea pig acetylcholinesterase
[2] = Inhibition of guinea pig acetylcholinesterase

Structure (SMILES)	IC50 [1] [µM]	IC50 [2] [µM]
CNc1c(NCCNCc2ccc(CN3CCCCC3)o2)c(=O)c1=O [3-Methylamino-4-{2-[(5-piperidin-1-ylmethyl-furan-2-ylmethyl)-amino]-ethylamino}-cyclobut-3-ene-1,2-dione]	9.3	–
CC1CCCCN1Cc1ccc(CNCCN2CCN=C2C(C#N)C#N)o1 (stereo unspecified) [2-[1-(2-{[5-(2-Methyl-piperidin-1-ylmethyl)-furan-2-ylmethyl]-amino}-ethyl)-imidazolidin-2-ylidene]-malononitrile]	0.54	–
N#CC(C#N)C1=NCCN1CCNCc1ccc(CN2CCCCC2)o1 [2-(1-{2-[(5-Piperidin-1-ylmethyl-furan-2-ylmethyl)-amino]-ethyl}-imidazolidin-2-ylidene)-malononitrile]	0.03	–
COc1cc(N)c(Cl)cc1C(=O)NCCNCc1ccc(CN(C)C)o1 [4-Amino-5-chloro-N-{2-[(5-dimethylaminomethyl-furan-2-ylmethyl)-amino]-ethyl}-2-methoxy-benzamide]	3.1	–
COC1CCCN(Cc2ccc(CNCCN3CCN=C3C(C#N)C#N)o2)C1 (stereo unspecified)	3.3	–
O=c1[nH]c2ccccc2n1CCNCc1ccc(CN2CCCCC2)o1 [1-{2-[(5-Piperidin-1-ylmethyl-furan-2-ylmethyl)-amino]-ethyl}-1,3-dihydro-benzoimidazol-2-one]	1.2	–
N#CC(C#N)C1=NCCN1CCNCc1ccc(CN2CCCC(O)C2)o1 (stereo unspecified) [2-[1-(2-{[5-(3-Hydroxy-piperidin-1-ylmethyl)-furan-2-ylmethyl]-amino}-ethyl)-imidazolidin-2-ylidene]-malononitrile]	–	0.37
CC1CCCN(Cc2ccc(CNCCN3CCN=C3C(C#N)C#N)o2)C1 (stereo unspecified) [2-[1-(2-{[5-(3-Methyl-piperidin-1-ylmethyl)-furan-2-ylmethyl]-amino}-ethyl)-imidazolidin-2-ylidene]-malononitrile]	–	0.37
CN=C(NCCNCc1ccc(CN2CCCC2)o1)C(C#N)C#N [2-(Methylamino-{2-[(5-pyrrolidin-1-ylmethyl-furan-2-ylmethyl)-amino]-ethylamino}-methylene)-malononitrile]	0.28	–
CN(C)Cc1ccc(CNCCN2CCN=C2C(C#N)C#N)o1 [2-(1-{2-[(5-Dimethylaminomethyl-furan-2-ylmethyl)-amino]-ethyl}-imidazolidin-2-ylidene)-malononitrile]	–	0.39
CCN(C)Cc1ccc(CNCCN2CCN=C2C(C#N)C#N)o1 [2-{1-[2-({5-[(Ethyl-methyl-amino)-methyl]-furan-2-ylmethyl}-amino)-ethyl]-imidazolidin-2-ylidene}-malononitrile]	0.43	–
N#CC(C#N)C1=NCCN1CCNCc1ccc(CN2CCSCC2)o1 [2-(1-{2-[(5-Thiomorpholin-4-ylmethyl-furan-2-ylmethyl)-amino]-ethyl}-imidazolidin-2-ylidene)-malononitrile]	1.5	–
CN=C(NCCNCc1ccc(COC)o1)C(C#N)C#N [2-({2-[(5-Methoxymethyl-furan-2-ylmethyl)-amino]-ethylamino}-methylamino-methylene)-malononitrile]	> 20	–
N#CC(C#N)C1=NCCN1CCNCc1ccc(CN2CCCC2)o1 [2-(1-{2-[(5-Pyrrolidin-1-ylmethyl-furan-2-ylmethyl)-amino]-ethyl}-imidazolidin-2-ylidene)-malononitrile]	0.08	–
CN(C)Cc1ccc(CNCCN2CCN=C2C[N+](=O)[O-])o1 [(5-Dimethylaminomethyl-furan-2-ylmethyl)-[2-(2-nitromethylene-imidazolidin-1-yl)-ethyl]-amine]	> 2	–
CN=C(NCCNCc1ccc(CN(C)C)o1)C(C#N)C#N [2-({2-[(5-Dimethylaminomethyl-furan-2-ylmethyl)-amino]-ethylamino}-methylamino-methylene)-malononitrile]	0.63	–
N#CC(C#N)C1=NCCN1CCNCc1ccc(CN2CCOCC2)o1 [2-(1-{2-[(5-Morpholin-4-ylmethyl-furan-2-ylmethyl)-amino]-ethyl}-imidazolidin-2-ylidene)-malononitrile]	11	–
N#CC(C#N)C1=NCCN1CCNCc1ccc(CN2CCCCCC2)o1	0.12	–
N#CC(C#N)c1nc2ccccc2n1CCNCc1ccc(CN2CCCCC2)o1 [2-(1-{2-[(5-Piperidin-1-ylmethyl-furan-2-ylmethyl)-amino]-ethyl}-1,3-dihydro-benzoimidazol-2-ylidene)-malononitrile]	0.073	–
N#CC(C#N)C1=NCCN1CCNCc1ccc(CN2CC=CCC2)o1	0.095	–
CN=C(NCCNCc1ccc(CN2CCCCC2)o1)C(C#N)C#N	0.83	–
CN=C(NCCNCc1ccc(CN(C(C)C)C(C)C)o1)C(C#N)C#N [2-{[2-({5-[(Diisopropylamino)-methyl]-furan-2-ylmethyl}-amino)-ethylamino]-methylamino-methylene}-malononitrile]	2.1	–
CCN(CC)Cc1ccc(CNCCN2CCN=C2C(C#N)C#N)o1	0.6	–
CCN(CC)CCNC(=O)c1cc(Cl)c(N)cc1OC [4-amino-5-chloro-N-[2-(diethylamino)ethyl]-2-methoxy-benzamide;hydrochloride]	> 20	–
CC1CCN(Cc2ccc(CNCCN3CCN=C3C(C#N)C#N)o2)CC1 [2-[1-(2-{[5-(4-Methyl-piperidin-1-ylmethyl)-furan-2-ylmethyl]-amino}-ethyl)-imidazolidin-2-ylidene]-malononitrile]	0.29	–
N#CC(C#N)C1=NCCN1CCNCc1ccc(CN2CCC(O)CC2)o1 [2-[1-(2-{[5-(4-Hydroxy-piperidin-1-ylmethyl)-furan-2-ylmethyl]-amino}-ethyl)-imidazolidin-2-ylidene]-malononitrile]	–	0.39
